From patent US10105437B2, “Epitopes related to coeliac disease” (BTG International Limited, priority 2004, dated 2018)
Where no end group is shown, it is not given here.

The substances below were run on PBMC from HLA-DQ2+ coeliac subjects (assay: Interferon gamma ELISPOT, secalin 20mer first round library after rye challenge). Conditions: 20mers pre-treated with tTG; day 6 PBMC; 14 subjects.
Assay type: cell-based, human
Experimental: Peptides were initially dissolved in aqueous acetonitrile (50%). Peptides in aqueous acetonitrile were transferred to sterile 96-well plates and diluted in sterile PBS with 1 mM calcium (250 mcg/ml) and then incubated with tTG (25 mcg/ml) (Sigma T5398) for 6 h 37° C. and then stored frozen (−20° C.) until use.
(§1) IFNγ ELISpot assays (Mabtech, Sweden) were performed in 96-well plates (MAIP S-45, Millipore) in which each well contained 25 mcl of peptide solution and 100 mcl of PBMC (2-8×10^5/well) in RPMI containing 10% heat inactivated human AB serum. After development and drying, IFNγ ELISpot plates were assessed using the MAIP automated ELISpot plate counter. Data was then analysed according to a novel algorithm (Expectation Maximization: EM) to define and quantify interferon-gamma responses to 9mer sequences contained within the peptide library (see FIG. 3 and below). 9mer peptides were then rationalised according to an algorithm that assumes redundancy in T-cell recognition, the “IterativeCluster” algorithm (see FIG. 4 and below), by allowing groups of amino acids with similar chemical properties at any one position in the 9mer, or for glutamate to replace glutamine at any position (assuming deamidation may have occurred).
Secalin and hordein 20mer first round peptide libraries were assessed 3 days after completing rye (bread, 100 g/d for 3 days) or barley (boiled, 100 g/d for 3 days) challenge (“day 6” PBMC interferon gamma ELISPOT responses). Although iterative analysis using 2nd and 3rd round peptide libraries to define epitopes has not yet been performed, the 20mers pre-treated with tTG found to induce “potent” responses shared substantial structural similarity to the bioactive peptides identified after wheat challenge. […] The dominant (>70% maximal response) 20mer after rye challenge was usually […] (SEQ ID NO: 1769) (8/14 subjects), or occasionally […] (SEQ ID NO: 1770) (4/14), […] (SEQ ID NO: 1771) (1/14), […] (SEQ ID NO: 1772) (1/14) and/or […] (SEQ ID NO: 1773) (1/14). Additional peptides noted for greater than 40% maximal response in at least 1 subject include: […]

| Substance | subjects in whom 20mer was dominant (>70% maximal response) after rye challenge |
| --- | --- |
| QPFPQPQQPTPIQPQQPFPQ (Description of Artificial Sequence: Synthetic gluten peptide) [rye secalin 20mer] | 4/14 |
| QQPQQLFPQTQQSSPQQPQQ (Description of Artificial Sequence: Synthetic gluten peptide) [rye secalin 20mer] | 1/14 |

Same assay, conditions: after rye challenge; 14 subjects

| Substance | number of subjects with > 70% maximal response | subjects with greater than 40% maximal response |
| --- | --- | --- |
| QQLPLQPQQPFPQPQQPIPQ (Description of Artificial Sequence: Synthetic gluten peptide) [rye secalin 20mer] | 2 | 6/14 |
| QQPFLLQPQQPFSQPQQPFL (Description of Artificial Sequence: Synthetic gluten peptide) [rye secalin 20mer] | 1 | 1/14 |
| QQPQQPFPLQPQQPVPQQPQ (Description of Artificial Sequence: Synthetic gluten peptide) [rye secalin 20mer] | 1 | 3/14 |
| QQPSIQLSLQQQLNPCKNVL (Description of Artificial Sequence: Synthetic gluten peptide) [rye secalin 20mer] | 1 | 1/14 |
| QTQQSIPQPQQPFPQPQQPF (Description of Artificial Sequence: Synthetic gluten peptide) [rye secalin 20mer] | 1 | 3/14 |
| SIPQPQQPFPQPQQPFPQSQ (Description of Artificial Sequence: Synthetic gluten peptide) [rye secalin 20mer] | 1 | 4/14 |
| SPQQPQLPFPQPQQPFVVVV (Description of Artificial Sequence: Synthetic gluten peptide) [rye secalin 20mer] | 1 | 4/14 |
| VGPSGQVSWPQQQPLPQPQQ (Description of Artificial Sequence: Synthetic gluten peptide) [rye secalin 20mer] | 2 | 2/14 |

What follows are substances tested on PBMC from HLA-DQ2+ coeliac subjects (assay: Interferon gamma ELISPOT, third round wheat peptide library). Conditions: following deamidation by tTG; 14 subjects; wheat challenge.
Assay type: cell-based, human
Experimental: as §1
The third round peptide library consisted of 74 peptides based upon structurally distinct sequences in the second round library found to induce at least 10% of the maximal response to any peptide in any subject. These peptides corresponded to wild-type (non-deamidated) sequences virtually identical to those used in the second round library. The distinct feature of this library was that it consisted of peptides with purity verified by HPLC as >80%, and with sequences confirmed by mass spectroscopy.
Interferon gamma ELSIPOT responses to the 3rd round library peptides following deamidation by tTG were compared in 14 subjects. Once again, sequences including the PQPQLPY motif (SEQ ID NO: 1937) were “dominant” in 9/14 subjects. However PFPQPQQPFPW (SEQ ID NO: 1894) stimulated >70% of maximal response in 1/14 subjects, PFPQQPQQPFPQ (SEQ ID NO: 1895) in 1/14, PQPFLPQLPYPQP (SEQ ID NO: 1896) in 1/14, QPFPQPQQPQQP (SEQ ID NO: 1897) in 4/14 (including 3 subjects in whom PQPQLPY peptides (SEQ ID NO: 1937) were not potent epitopes) SGQGVSQSQQQSQQQ (SEQ ID NO: 1898) in 2/14 (including one in which PQPQLPY peptides (SEQ ID NO: 1937) were not potent), QYEVIRSLVLRTLPNM (SEQ ID NO: 1899) and GLARSQMLQQSICHVG (SEQ ID NO: 1900) each in one (the same) subject in whom PQPQLPY peptides (SEQ ID NO: 1937) were not potent epitopes, RTTTSVPFGVGTGVGA (SEQ ID NO: 1901) in 1/14 subjects and AIHTVIHSIIMQQEQQ (SEQ ID NO: 1902) in 1/14 subjects.

| Substance | subjects in whom peptide stimulated >70% of maximal response (dominant) |
| --- | --- |
| AIHTVIHSIIMQQEQQ (Description of Artificial Sequence: Synthetic gluten peptide) | 1/14 |
| GLARSQMLQQSICHVG (Description of Artificial Sequence: Synthetic gluten peptide) | one |
| PFPQPQQPFPW (Description of Artificial Sequence: Synthetic gluten peptide) | 1/14 |
| PFPQQPQQPFPQ (Description of Artificial Sequence: Synthetic gluten peptide) | 1/14 |
| PQPFLPQLPYPQP (Description of Artificial Sequence: Synthetic gluten peptide) | 1/14 |
| QPFPQPQQPQQP (Description of Artificial Sequence: Synthetic gluten peptide) | 4/14 |
| QYEVIRSLVLRTLPNM (Description of Artificial Sequence: Synthetic gluten peptide) | one |
| RTTTSVPFGVGTGVGA (Description of Artificial Sequence: Synthetic gluten peptide) | 1/14 |
| SGQGVSQSQQQSQQQ (Description of Artificial Sequence: Synthetic gluten peptide) | 2/14 |

These substances were tested on PBMC from HLA DQ8+DQ2- CD subjects (assay: Interferon gamma ELISPOT, second round gliadin library in HLA DQ8 subjects). Conditions: not given.
Assay type: cell-based, human
From the text: PBMC from two subjects initially challenged were used to screen the first round “Melbourne” wheat gliadin 20mer library. The 20mer sequences identified using PBMC from these two HLA DQ8 CD subjects were dissected further by screening, in five HLA DQ8+DQ2− CD subjects including the two original subjects, a second round library based on reactive 20mers in the 1st round library. The 2nd round library consisted of screening grade overlapping 16mers, and 13mers predicted to correspond to tTG-mediated deamidation products of epitopes with the potential for deamidation of glutamine at position 1 and/or position 9 (consistent with the HLA DQ8 peptide binding motif). In addition, the 1400 glutenin (HMW and LMW) tTG-pretreated 20mers in the “Melbourne” wheat gluten library were also screened in these five subjects.

| Substance | effect of deamidation of specific glutamine residues on ELISPOT responses |
| --- | --- |
| (QE)GSFQPSQ(QE): previously published HLA DQ8 epitope, van der Wal 1998 (XGSFQPSQX; not fully specified; printed as (QE)GSFQPSQ(QE)) [reference compound] | enhanced or permissive to specific glutamine residues being deamidated |
| (QE)QPFP(QE)QP(QE): HLA DQ8 gliadin epitope motif, Q or E at marked positions (XQPFPXQPX; not fully specified; printed as (QE)QPFP(QE)QP(QE)) | enhanced or permissive to specific glutamine residues being deamidated |
| (QE)QPFPLQP(QE): HLA DQ8 gliadin epitope motif, Q or E at marked positions (XQPFPLQPX; not fully specified; printed as (QE)QPFPLQP(QE)) | enhanced or permissive to specific glutamine residues being deamidated |
| (QE)QPIPVQP(QE): HLA DQ8 gliadin epitope motif, Q or E at marked positions (XQPIPVQPX; not fully specified; printed as (QE)QPIPVQP(QE)) | enhanced or permissive to specific glutamine residues being deamidated |
| (QE)QPQQPFP(QE): HLA DQ8 gliadin epitope motif, Q or E at marked positions (XQPQQPFPX; not fully specified; printed as (QE)QPQQPFP(QE)) | enhanced or permissive to specific glutamine residues being deamidated |
| (QE)QPTPIQP(QE): HLA DQ8 gliadin epitope motif, Q or E at marked positions (XQPTPIQPX; not fully specified; printed as (QE)QPTPIQP(QE)) | enhanced or permissive to specific glutamine residues being deamidated |

Same assay, conditions: VYIPPYCTIAPFGIFG and/or AMCNVYIPPYCAMAPF; five subjects

| Substance | subjects with dominant responses to one or both of these peptides |
| --- | --- |
| AMCNVYIPPYCAMAPF (Description of Artificial Sequence: Synthetic gluten peptide) [gliadin 16mer, HLA DQ8] | 4/5 |
| VYIPPYCTIAPFGIFG (Description of Artificial Sequence: Synthetic gluten peptide) [gliadin 16mer, HLA DQ8] | 4/5 |

Same assay, conditions: five subjects; wheat gluten challenge

| Substance | subjects with >70% response to maximal gliadin 16mer (dominant) |
| --- | --- |
| AMCNVYIPPYCAMAPF (Description of Artificial Sequence: Synthetic gluten peptide) [gliadin 16mer, HLA DQ8] | 3/5 |
| VYIPPYCTIAPFGIFG (Description of Artificial Sequence: Synthetic gluten peptide) [gliadin 16mer, HLA DQ8] | 3/5 |
